{
  "source": "patent US8536332B2",
  "about": "“Modulating signal transduction pathways with substituted pyridol [2,3-b] pyrazines” (Aeterna Zentaris GmbH, priority 2007, dated 2013)",
  "data": [
    {"units": {"melting point": "°C"}, "values": [
      {"smiles": "CCNC(=S)Nc1ccc2ncc(N(C)c3cc(OC)c(OC)c(OC)c3)nc2n1", "note": "[Compound 706, 1-Ethyl-3-{3-[methyl-(3,4,5-trimethoxy-phenyl)-amino]-pyrido[2,3-b]pyrazin-6-yl}-thiourea]", "melting point": 222},
      {"smiles": "CCNC(=S)Nc1ccc2ncc(Nc3ccc(C)c(NS(C)(=O)=O)c3)nc2n1", "note": "[Compound 165, N-{5-[6-(3-Ethyl-thioureido)-pyrido[2,3-b]pyrazin-3-ylamino]-2-methyl-phenyl}-methanesulfonamide]", "melting point": 268},
      {"smiles": "CCNC(=O)Nc1ccc2ncc(Nc3cccc(C)c3C)nc2n1", "note": "[Compound 378, 1-[3-(2,3-Dimethyl-phenylamino)-pyrido[2,3-b]pyrazin-6-yl]-3-ethyl-urea]", "melting point": 225},
      {"smiles": "COc1cc(Nc2cnc3ccc(NC(=S)NCCN4CCOCC4)nc3n2)cc(OC)c1OC", "note": "[Compound 703, 1-(2-Morpholin-4-yl-ethyl)-3-[3-(3,4,5-trimethoxy-phenylamino)-pyrido[2,3-b]pyrazin-6-yl]-thiourea]", "melting point": 196},
      {"smiles": "C=CCNC(=S)Nc1cnc2ccc(-c3ccc(O)c(OC)c3)nc2n1", "note": "[Compound 521, 1-Allyl-3-[6-(4-hydroxy-3-methoxy-phenyl)-pyrido[2,3-b]pyrazin-3-yl]-thiourea]", "melting point": "261 to 262"},
      {"smiles": "CCNC(=O)Nc1cnc2ccc(-c3cc(Cl)c(O)c(Cl)c3)nc2n1", "note": "[Compound 9, 1-[6-(3,5-Dichloro-4-hydroxy-phenyl)-pyrido[2,3-b]pyrazin-3-yl]-3-ethyl-urea]", "melting point": "> 300"},
      {"smiles": "CCNC(=O)Nc1ccc2ncc(-c3ccc([N+](=O)[O-])cc3)nc2n1", "note": "[Compound 131, 1-Ethyl-3-[3-(4-nitro-phenyl)-pyrido[2,3-b]pyrazin-6-yl]-urea]", "melting point": "> 350"},
      {"smiles": "C=CCNC(=O)Nc1cnc2ccc(-c3ccc(OC)c(OC)c3)nc2n1", "note": "[Compound 575, 1-Allyl-3-[6-(3,4-dimethoxy-phenyl)-pyrido[2,3-b]pyrazin-3-yl]-urea]", "melting point": "236 to 238"},
      {"smiles": "CCNC(=O)Nc1ccc2ncc(-c3cc4ccccc4[nH]3)nc2n1", "note": "[Compound 70, 1-Ethyl-3-[3-(1H-indol-2-yl)-pyrido[2,3-b]pyrazin-6-yl]-urea]", "melting point": "> 300"},
      {"smiles": "CCOC(=O)CCNC(=S)Nc1ccc2ncc(Nc3cc(OC)c(OC)c(OC)c3)nc2n1", "note": "[Compound 709, 3-{3-[3-(3,4,5-Trimethoxy-phenylamino)-pyrido[2,3-b]pyrazin-6-yl]-thioureido}-propionic acid ethyl ester]", "melting point": 244},
      {"smiles": "CCNC(=S)Nc1ccc2ncc(Nc3cc(Cl)c(Cl)c(Cl)c3)nc2n1", "note": "[Compound 465, 1-Ethyl-3-[3-(3,4,5-trichloro-phenylamino)-pyrido[2,3-b]pyrazin-6-yl]-thiourea]", "melting point": 277},
      {"smiles": "COc1cc(-c2ccc3ncc(NC(=S)NC(C)(C)C)nc3n2)ccc1O", "note": "[Compound 652, 1-tert-Butyl-3-[6-(4-hydroxy-3-methoxy-phenyl)-pyrido[2,3-b]pyrazin-3-yl]-thiourea]", "melting point": "213 to 215"},
      {"smiles": "CCNC(=S)Nc1ccc2ncc(Nc3cc(Cl)cc(Cl)c3)nc2n1", "note": "[Compound 443, 1-[3-(3,5-Dichloro-phenylamino)-pyrido[2,3-b]pyrazin-6-yl]-3-ethyl-thiourea]", "melting point": 270},
      {"smiles": "O=C(NCCc1ccccc1)Nc1cnc2ccc(-c3cc(Cl)c(O)c(Cl)c3)nc2n1", "note": "[Compound 564, 1-[6-(3,5-Dichloro-4-hydroxy-phenyl)-pyrido[2,3-b]pyrazin-3-yl]-3-phenethyl-urea]", "melting point": "280 to 282"},
      {"smiles": "CCNC(=O)Nc1ccc2ncc(-c3cccc(N(C)C)c3)nc2n1", "note": "[Compound 144, 1-[3-(3-Dimethylamino-phenyl)-pyrido[2,3-b]pyrazin-6-yl]-3-ethyl-urea]", "melting point": "240 to 244"},
      {"smiles": "CCNC(=S)Nc1ccc2ncc(Nc3ccc4ccccc4c3)nc2n1", "note": "[Compound 168, 1-Ethyl-3-[3-(naphthalen-2-ylamino)-pyrido[2,3-b]pyrazin-6-yl]-thiourea]", "melting point": 289},
      {"smiles": "COc1cc(Nc2cnc3ccc(NC(=S)NCCCc4ccccc4)nc3n2)cc(OC)c1OC", "note": "[Compound 704, 1-(3-Phenyl-propyl)-3-[3-(3,4,5-trimethoxy-phenylamino)-pyrido[2,3-b]pyrazin-6-yl]-thiourea]", "melting point": "195 to 198"},
      {"smiles": "COc1cc(Nc2cnc3ccc(NC(=S)NC(C)c4ccccc4)nc3n2)cc(OC)c1OC", "note": "(stereo not drawn) [Compound 711, 1-(1-Phenyl-ethyl)-3-[3-(3,4,5-trimethoxy-phenylamino)-pyrido[2,3-b]pyrazin-6-yl]-thiourea]", "melting point": 248},
      {"smiles": "COc1cc(Nc2cnc3ccc(NC(=S)NCc4ccc(F)cc4)nc3n2)cc(OC)c1OC", "note": "[Compound 701, 1-(4-Fluoro-benzyl)-3-[3-(3,4,5-trimethoxy-phenylamino)-pyrido[2,3-b]pyrazin-6-yl]-thiourea]", "melting point": 255},
      {"smiles": "COc1cc(Nc2cnc3ccc(NC(=S)NC4CC4)nc3n2)cc(OC)c1OC", "note": "[Compound 707, 1-Cyclopropyl-3-[3-(3,4,5-trimethoxy-phenylamino)-pyrido[2,3-b]pyrazin-6-yl]-thiourea]", "melting point": 248},
      {"smiles": "COc1ccc(-c2ccc3ncc(NC(=O)Nc4ccc(N5C(=O)C=CC5=O)cc4)nc3n2)cc1OC", "note": "[Compound 579, 1-[6-(3,4-Dimethoxy-phenyl)-pyrido[2,3-b]pyrazin-3-yl]-3-[4-(2,5-dioxo-2,5-dihydro-pyrrol-1-yl)-phenyl]-urea]", "melting point": "279 to 283"},
      {"smiles": "CCNC(=S)Nc1ccc2ncc(Nc3cccc(OC(C)C)c3)nc2n1", "note": "[Compound 163, 1-Ethyl-3-[3-(3-isopropoxy-phenylamino)-pyrido[2,3-b]pyrazin-6-yl]-thiourea]", "melting point": 238},
      {"smiles": "CCNC(=O)Nc1cnc2ccc(-c3ccc(C(=O)O)c(O)c3)nc2n1", "note": "[Compound 644]", "melting point": 225},
      {"smiles": "CCNC(=O)Nc1ccc2ncc(Nc3cc(C)c(O)cc3C)nc2n1", "note": "[Compound 446, 1-Ethyl-3-[3-(4-hydroxy-2,5-dimethyl-phenylamino)-pyrido[2,3-b]pyrazin-6-yl]-urea]", "melting point": 222},
      {"smiles": "CCNC(=O)Nc1ccc2ncc(-c3ccccc3OCC)nc2n1", "note": "[Compound 102, 1-[3-(2-Ethoxy-phenyl)-pyrido[2,3-b]pyrazin-6-yl]-3-ethyl-urea]", "melting point": "220 to 222"},
      {"smiles": "CCNC(=O)Nc1ccc2ncc(-c3ccccc3SC)nc2n1", "note": "[Compound 135, 1-Ethyl-3-[3-(2-methylsulfanyl-phenyl)-pyrido[2,3-b]pyrazin-6-yl]-urea]", "melting point": "182 to 185"},
      {"smiles": "CCNC(=O)Nc1ccc2ncc(-c3ccc(-c4ccccc4)cc3F)nc2n1", "note": "[Compound 84, 1-Ethyl-3-[3-(3-fluoro-biphenyl-4-yl)-pyrido[2,3-b]pyrazin-6-yl]-urea]", "melting point": "263.9 to 265.6"},
      {"smiles": "CCNC(=O)Nc1ccc2ncc(-c3ccc(N(c4ccccc4)c4ccccc4)cc3)nc2n1", "note": "[Compound 128, 1-[3-(4-Diphenylamino-phenyl)-pyrido[2,3-b]pyrazin-6-yl]-3-ethyl-urea]", "melting point": "269 to 273"},
      {"smiles": "COc1cc(Nc2cnc3ccc(NC(=S)NCc4ccc(C)cc4)nc3n2)cc(OC)c1OC", "note": "[Compound 698, 1-(4-Methyl-benzyl)-3-[3-(3,4,5-trimethoxy-phenylamino)-pyrido[2,3-b]pyrazin-6-yl]-thiourea]", "melting point": "248 to 250"},
      {"smiles": "C=CCNC(=O)Nc1cnc2ccc(-c3ccc(O)c(OC)c3)nc2n1", "note": "[Compound 18, 1-Allyl-3-[6-(4-hydroxy-3-methoxy-phenyl)-pyrido[2,3-b]pyrazin-3-yl]-urea]", "melting point": "211 to 213"},
      {"smiles": "CCOc1ccc(NC(=O)Nc2cnc3ccc(-c4ccc(O)c(OC)c4)nc3n2)cc1", "note": "[Compound 624, 1-(4-Ethoxy-phenyl)-3-[6-(4-hydroxy-3-methoxy-phenyl)-pyrido[2,3-b]pyrazin-3-yl]-urea]", "melting point": "242 to 245"},
      {"smiles": "COc1cc(-c2ccc3ncc(NC(=O)Nc4c(C)noc4C)nc3n2)ccc1O", "note": "[Compound 27, 1-(3,5-Dimethyl-isoxazol-4-yl)-3-[6-(4-hydroxy-3-methoxy-phenyl)-pyrido[2,3-b]pyrazin-3-yl]-urea]", "melting point": "249 to 252"},
      {"smiles": "CCNC(=O)Nc1ccc2ncc(-c3cccc(Cl)c3Cl)nc2n1", "note": "[Compound 108, 1-[3-(2,3-Dichloro-phenyl)-pyrido[2,3-b]pyrazin-6-yl]-3-ethyl-urea]", "melting point": "> 350"},
      {"smiles": "CCNC(=S)Nc1cnc2ccc(Cl)nc2n1", "note": "[Example 2, 1-(6-Chloro-pyrido[2,3-b]pyrazin-3-yl)-3-ethyl-thiourea]", "melting point": 215},
      {"smiles": "C=CCNC(=S)Nc1ccc2ncc(Nc3cc(OC)c(OC)c(OC)c3)nc2n1", "note": "[Compound 693, 1-Allyl-3-[3-(3,4,5-trimethoxy-phenylamino)-pyrido[2,3-b]pyrazin-6-yl]-thiourea]", "melting point": "230 to 234"},
      {"smiles": "CCNC(=O)Nc1ccc2ncc(-c3ccn[nH]3)nc2n1", "note": "[Compound 52, 1-Ethyl-3-[3-(2H-pyrazol-3-yl)-pyrido[2,3-b]pyrazin-6-yl]-urea]", "melting point": "218 to 220"},
      {"smiles": "CCNC(=S)Nc1cnc2ccc(Nc3ccc(OC)c(O)c3)nc2n1", "note": "[Compound 205, 1-Ethyl-3-[6-(3-hydroxy-4-methoxy-phenylamino)-pyrido[2,3-b]pyrazin-3-yl]-thiourea]", "melting point": 166},
      {"smiles": "CCNC(=O)Nc1ccc2ncc(-c3cnn(Cc4ccccc4)c3)nc2n1", "note": "[Compound 58, 1-[3-(1-Benzyl-1H-pyrazol-4-yl)-pyrido[2,3-b]pyrazin-6-yl]-3-ethyl-urea]", "melting point": "258 to 261"},
      {"smiles": "CCNC(=O)Nc1ccc2ncc(-c3cnn(CCN4CCOCC4)c3)nc2n1", "note": "[Compound 60, 1-Ethyl-3-{3-[1-(2-morpholin-4-yl-ethyl)-1H-pyrazol-4-yl]-pyrido[2,3-b]pyrazin-6-yl}-urea]", "melting point": "223 to 226"},
      {"smiles": "CCNC(=O)Nc1cnc2ccc(-c3ccc(Cl)cc3)nc2n1", "note": "[Compound 6, 1-[6-(4-Chloro-phenyl)-pyrido[2,3-b]pyrazin-3-yl]-3-ethyl-urea]", "melting point": 276},
      {"smiles": "CCNC(=O)Nc1ccc2ncc(-c3ccc(NC(=O)OCCOC)c(OC)c3)nc2n1", "note": "[Compound 40, {4-[6-(3-Ethyl-ureido)-pyrido[2,3-b]pyrazin-3-yl]-2-methoxy-phenyl}-carbamic acid 2-methoxy-ethyl ester]", "melting point": "> 240"},
      {"smiles": "COc1cc(Nc2cnc3ccc(NC(=S)NC4CCCCCCC4)nc3n2)cc(OC)c1OC", "note": "[Compound 691, 1-Cyclooctyl-3-[3-(3,4,5-trimethoxy-phenylamino)-pyrido[2,3-b]pyrazin-6-yl]-thiourea]", "melting point": 250}
    ]}
  ]
}
